Measured values reported in patent publication US20240150339A1, “Compounds and Their Use as PDE4 Activators” (Mironid Limited, priority 2021, published 2024).

target: T1, PDE4D5 (Homo sapiens, UniProt Q08499); assay: PDE assay, activation of full-length human PDE4D5 long form ([3H]cAMP radio-assay); assay type: biochemical; settings: 30 μM test compound; mean % increase in counts over basal activity
T1 construct: Using Full-Length Human PDE4 Isoforms: Long Forms PDE4D5, PDE4C3, PDE4B1 and Short Form PDE4B2; made in house; cytosol fraction of the cell lysate, not purified
T1 sequence (Q08499 1-745 isoform Q08499-6): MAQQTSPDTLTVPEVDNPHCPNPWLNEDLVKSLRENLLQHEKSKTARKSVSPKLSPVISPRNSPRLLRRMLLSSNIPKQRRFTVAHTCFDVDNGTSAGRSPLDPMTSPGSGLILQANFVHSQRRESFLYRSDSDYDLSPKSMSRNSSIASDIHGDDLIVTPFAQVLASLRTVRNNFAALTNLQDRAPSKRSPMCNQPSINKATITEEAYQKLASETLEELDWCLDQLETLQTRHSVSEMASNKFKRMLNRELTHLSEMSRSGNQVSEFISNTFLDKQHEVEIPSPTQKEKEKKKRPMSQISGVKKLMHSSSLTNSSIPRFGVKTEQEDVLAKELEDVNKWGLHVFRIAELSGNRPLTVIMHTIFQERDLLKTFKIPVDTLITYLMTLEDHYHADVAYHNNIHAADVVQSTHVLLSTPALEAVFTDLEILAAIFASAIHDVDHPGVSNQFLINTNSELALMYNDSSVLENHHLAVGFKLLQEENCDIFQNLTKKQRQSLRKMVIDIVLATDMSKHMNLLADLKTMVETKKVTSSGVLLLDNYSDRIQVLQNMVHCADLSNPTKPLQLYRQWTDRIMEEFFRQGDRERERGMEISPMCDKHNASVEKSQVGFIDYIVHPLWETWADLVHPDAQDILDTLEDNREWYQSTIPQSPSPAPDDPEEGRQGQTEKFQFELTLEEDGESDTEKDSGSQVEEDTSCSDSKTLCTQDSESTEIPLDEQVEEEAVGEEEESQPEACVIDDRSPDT
From the text: Experiment 1: Measurement of Modulation of Enzyme Activity by PDE4 Long Form Activators of the Present Invention Using Full-Length Human PDE4 Isoforms: Long Forms PDE4D5, PDE4C3, PDE4B1 and Short Form PDE4B2
(Marchmont, R. J. and Houslay, M. D. Biochem. J. 187: 381-92, 1980)
For transient transfection of exogenous PDE4 long isoforms, HEK 293 cells were transfected with pcDNA3.1 or pDEST™ PDE4 expression vectors using Lipofectamine LTX/Plus reagent (Invitrogen) as outlined by the manufacturer.
Where stable cell lines were generated the clonal isolates were expanded to obtain cell lines that stably expressed the full-length human PDE4 long isoforms and the full length human PDE4B2 short isoform. These were called the HEK-PDE4D5, HEK-PDE4B1 and HEK-PDE4B2 cell lines, respectively.
HEK-PDE4D5 cells were seeded out in 100 mm plates and incubated at 37° C. in an atmosphere of 5% CO2, 95% air. Cell lysates were prepared using KHEM buffer [50 mM KCl, 10 mM EGTA, 50 mM HEPES (pH 7.2), 1.92 mM MgCl2].
To prepare the cell lysates, the 100 mm plates containing the cells were placed on ice and washed with ice-cold PBS (phosphate buffered saline, pH 7.4). KHEM buffer (500 μl) was added to the cells. Cells were then scraped off the plate and triturated using a needle (BD Microlance™ 0.8, 40 mm). The lysed cells were then centrifuged at 2000 rpm for 10 minutes to remove cell debris and the supernatant (cell lysate containing recombinant PDE4D5) was transferred to a fresh tube and kept on ice.
The cell lysate containing recombinant PDE4D5 was transferred into a centrifuge tube and placed into an ultracentrifuge (BECKMAN COULTER) and spun at high speed (100,000 g) for 30 minutes at 4° C. The cytosol fraction was then collected and its protein amount determined using a BCA protein assay.
PDE assays were performed in thin walled V-bottomed 96-well plates. The assays were performed at a final concentration of 10 mM Tris/5 mM MgCl2 μlus PDE4D5 cell lysate cytosol fraction, containing over-expressed PDE4D5, with and without test compound. The lysate/compound mix were incubated together for 15 min at room temperature on an orbital shaker prior to addition of [^3H] cAMP (final concentration 1 μM [^3H] cAMP; Perkin Elmer) to a final volume of 50 μl per reaction. The reactions were then incubated for 10 minutes at 30° C., terminated by heating for 2 min at 95° C. and allowed to cool. Snake venom (12.5 μl of 1 mg/ml; Crotalus atrox, Sigma) was then added and the plates were agitated and incubated for a further 15 minutes at 30° C. Dowex ion exchange resin (Sigma, chloride form, 200-400 mesh; 200 μl; prepared as a 1:1 Dowex: water stock, thoroughly re-suspended and diluted 2:1 with ethanol) was then added to each well and the plates incubated for 15 min at room temperature on an orbital shaker ensuring sufficient agitation for resin suspension (550 RPM). The reaction mixture was then transferred to a 96 well filter plate (Millipore; […] pore size) and filtered into a receiving 96-well plate to remove the dowex suspension. 30 μL of the filtered solution was then transferred to the wells of an Opti-plate (Perkin Elmer) 96 well assay plate and 120 μl of Microscint 40 scintillation fluid was added. The plate was then placed on an orbital shaker for 10 min at high speed (900 RPM) to mix the sample with scintillation fluid prior to quantitation using a plate based scintillation counter (Top-Count).
The % increase in counts in the presence of test compound at a particular concentration indicates the % increase in enzyme activity at that concentration.

activation at 30 µM [%] | SMILES
194 | Cc1cncc(-c2nc3ccc(C(=O)N[C@H]4c5ccccc5C[C@@H]4O)cc3s2)c1 [Example 41, N-((1S,2S)-2-hydroxy-2,3-dihydro-1H-inden-1-yl)-2-(5-methylpyridin-3-yl)benzo[d]thiazole-6-carboxamide]
138 | Cc1cncc(-c2nc3ccc(C(=O)N[C@@H]4c5ccccc5C[C@H]4O)cc3s2)c1 [Example 42, N-((1R,2R)-2-hydroxy-2,3-dihydro-1H-inden-1-yl)-2-(5-methylpyridin-3-yl)benzo[d]thiazole-6-carboxamide]
87 | Cc1cncc(-c2nc3ccc(C(=O)N[C@H]4CCCc5ccccc54)cc3s2)c1 [Example 44, (S)-2-(5-methylpyridin-3-yl)-N-(1,2,3,4-tetrahydronaphthalen-1-yl)benzo[d]thiazole-6-carboxamide]
102 | Cc1cncc(-c2nc3ccc(C(=O)N[C@H]4CCOc5ccccc54)cc3s2)c1 [Example 45, (S)-N-(chroman-4-yl)-2-(5-methylpyridin-3-yl)benzo[d]thiazole-6-carboxamide]
106 | O=C(N[C@H]1CCOc2ccccc21)c1ccc2nc(-c3ccncc3)sc2c1 [Example 54, (S)-N-(chroman-4-yl)-2-(pyridin-4-yl)benzo[d]thiazole-6-carboxamide]
100 | Cn1cc(-c2nc3ccc(C(=O)N[C@H]4CCOc5ccccc54)cc3s2)cn1 [Example 57, (S)-N-(chroman-4-yl)-2-(1-methyl-1H-pyrazol-4-yl)benzo[d]thiazole-6-carboxamide]
101 | Cc1cnn(C)c1-c1nc2ccc(C(=O)N[C@H]3CCOc4ccccc43)cc2s1 [Example 58, (S)-N-(chroman-4-yl)-2-(1,4-dimethyl-1H-pyrazol-5-yl)benzo[d]thiazole-6-carboxamide]
122 | Cc1c(-c2nc3ccc(C(=O)N[C@H]4CCOc5ccccc54)cc3s2)cnn1C [Example 60, (S)-N-(chroman-4-yl)-2-(1,5-dimethyl-1H-pyrazol-4-yl)benzo[d]thiazole-6-carboxamide]
133 | O=C(N[C@H]1CCOc2ccccc21)c1ccc2nc(-c3cncc(CO)c3)sc2c1 [Example 62, (S)-N-(chroman-4-yl)-2-(5-(hydroxymethyl)pyridin-3-yl)benzo[d]thiazole-6-carboxamide]
64 | O=C(N[C@H]1CCOc2ccccc21)c1ccc2nc(-c3ccc(C(F)F)nc3)sc2c1 [Example 64, (S)-N-(chroman-4-yl)-2-(6-(difluoromethyl)pyridin-3-yl)benzo[d]thiazole-6-carboxamide]
78 | Cc1ccncc1-c1nc2cc(C(=O)N[C@H]3CCOc4ccccc43)ccc2s1 [Example 66, (S)-N-(chroman-4-yl)-2-(4-methylpyridin-3-yl)benzo[d]thiazole-5-carboxamide]
89 | O=C(N[C@H]1CCOc2ccccc21)c1ccc2sc(-c3cccnc3)nc2c1 [Example 67, (S)-N-(chroman-4-yl)-2-(pyridin-3-yl)benzo[d]thiazole-5-carboxamide]
32 | CCN1CCN(c2nc3ccc(C(=O)N[C@H]4CCOc5ccccc54)cc3s2)CC1 [Example 72, (S)-N-(chroman-4-yl)-2-(4-ethylpiperazin-1-yl)benzo[d]thiazole-6-carboxamide]
57 | O=C(N[C@H]1CCOc2ccccc21)c1ccc2nc(N3CCCCC3)sc2c1 [Example 76, (S)-N-(chroman-4-yl)-2-(piperidin-1-yl)benzo[d]thiazole-6-carboxamide]

same assay, conditions: concentration response, result in words

Activation of PDE4D5 (FIG. 1) | SMILES
concentration-dependent activation | Cc1ccncc1-c1nc2cc(C(=O)N[C@H]3CCOc4ccccc43)ccc2s1 [Example 66, (S)-N-(chroman-4-yl)-2-(4-methylpyridin-3-yl)benzo[d]thiazole-5-carboxamide]
